Values of other authors as cited in patent publication US9510493B2, “Mixture of hydrofluoroolefin and fluoroketone for use as an insulation and/or ARC extinguishing medium and a gas insulated medium-voltage electrical device comprising same” (priority 2011, dated 2016).

Legend:
animal population = conditions: causing death of 50% of an animal population
humans = conditions: average limit concentration, 8 hours per day for 5 days per week, without noxious effect

Structure (SMILES)	lethal dose DL50 (animal population)	occupational exposure limit OEL (humans)
O=C(C(F)(F)F)C(F)(C(F)(F)F)C(F)(F)F [C5K, decafluoro-2-methylbutan-3-one]	more than 200 000 ppm	1 000 ppm
F/C=C/C(F)(F)F [HFO-1234ze, trans-1,3,3,3-tetrafluoro-1-propene]	> 200 000 ppm	1 000 ppm
